Laboratory results as given in patent US8148577B2, “Polyamines useful as anti-parasitic and anti-cancer therapeutics and as lysine-specific demethylase inhibitors” (The Johns Hopkins University, priority 2005, dated 2012).
pIC50: −log10 of the molar value.

Key:
Assay type in all cases: cell-based, human
[1] = test system: H157 (non-small cell lung carcinoma) cells; assay: 96 hr MTS dose response experiment in H157 cells; conditions: a range means IC50 lies between the two tested concentrations
Protocol: MTS dose response experiments in H157, H82, and A549 cells following a 96 hr exposure with select compounds were performed. MTS is a standard colorimetric assay used for measuring metabolic activity in cells. MTS experiments were performed by CellTiter 96® AQueuos One Solution Cell Proliferation Assay from Promega Corporation. Briefly, the cells were seeded at 3000 cells/well on a 96 well tissue culture plate containing 100 ul of medium/well and allowed to attach overnight. The medium was then aspirated and replaced with 100 ul of fresh medium containing the appropriate concentration of the compound being tested and incubated for 96 hrs at 37° C. and 5% CO2. Compounds are routinely tested at concentrations ranging from 0.1 micromolar to 50 micromolar. Wells not containing the test compound were present and used as a control. Following treatment, 20 ul of MTS reagent was added to each well and incubated at 37° C. for 1.5 hrs. The absorbance of each well was then measured at 490 nm and used to determine the metabolic activity of the cells in the presence of the test compound, relative to the control. IC50 values for the test compounds were extracted based on the results.
Note that the results for a 72 hr exposure in addition to the 96 hr exposure are shown for compound 49-TDW-29C in the H157 cells. […] FIG. 1 depicts the results of a 96 hr MTS dose response experiments for compound 46-TDW-23c in H157, A549, H82 and Beas2B cells. FIG. 2 depicts the results of a 96 hr MTS dose response experiments for compound 49-TDW-9 in H157, A549, H82 and Beas2B cells. FIG. 3 depicts the results of a 96 hr MTS dose response experiments for compound 42-TDW-21c in H157, A549, H82 and Beas2B cells. FIG. 4 depicts the results of a 96 hr MTS dose response experiments for compound 46-TDW-19c in H157, A549, H82 and Beas2B cells. FIG. 5 depicts the results of a 96 hr MTS dose response experiments for compound 49-TDW-17c in H157, A549, H82 and Beas2B cells. FIG. 6 depicts the results of a 96 hr MTS dose response experiments for compound 40-TDW-37 in H157, A549, H82 and Beas2B cells. FIG. 7 depicts the results of a 96 hr MTS dose response experiments for compound 42-TDW-4 in H157, A549, H82 and Beas2B cells. FIG. 8 depicts the results of a 96 hr MTS dose response experiments for compound 49-TDW-29c in H157, A549, H82 and Beas2B cells. FIG. 9 depicts the results of a 96 hr MTS dose response experiments for compound 49-TDW-32c in H157, A549, H82 and Beas2B cells. FIG. 10 depicts the results of a 96 hr MTS dose response experiments for compound 46-TDW-35c in H157, A549, H82 and Beas2B cells. FIG. 11 depicts the results of a 96 hr MTS dose response experiments for compound 39-TDW-3 in H157, A549, and H82 cells. FIG. 12 depicts the results of a 96 hr MTS dose response experiments for compound 39-TDW-12c in […], and A549 cells. FIG. 13 depicts the results of a 96 hr MTS dose response experiments for compound 39-TDW-20c in H157, and H82 cells. FIG. 14 depicts the results of a 96 hr MTS dose response experiments for compounds 39-TDw-47c and 39-TDW-43 in H157 cells. FIG. 15 depicts the results of a 96 hr MTS dose response experiments for compounds 42-TDW-9, 42-TDW-4c/6, 40-TDW-35, 42-TDW-38 and BENSpm in H157 cells. FIG. 16 depicts the results of a 96 hr MTS dose response experiments for compounds 46-TDW-34c, 42-TDW-12, 40-TDW-48, 46-TDW-44c and BENSpm in H157 cells. FIG. 17 depicts the results of a 96 hr MTS dose response experiments for compounds 42-TDW-20c, 46-TDW-22, 46-TDW-39, 49-TDW-29c and BENSpm in H157 cells. FIG. 18 depicts the results of a 96 hr MTS dose response experiments for compounds 39-TDW-43, 42-TDW-48c, 46-TDW-9, 46-TDW-23c and BENSpm in H157 cells. FIG. 19 depicts the results of a 96 hr MTS dose response experiments for compounds 42-TDW-35c, 46-TDW-44 and BENSpm in H157 cells.

[2] = test system: H157 (non-small cell lung carcinoma) cells; assay: Polyamine levels in H157 cells following treatment; conditions: for Polyamine Level, Spm: spermine (Spm)
Protocol: (§1) Putrescine, spermidine, and spermine polyamine levels in H157 and H82 cells following exposure to select compounds were performed. Polyamine levels were determined using the precolumn dansylation labeling, reverse-phase high-pressure liquid chromatography method as described by Kabra et al., J. Chromotography, 380:19 (1986). The results are show in Tables 6 and 11 for H157 and H82 cells respectively. The compound identifier, treatment concentration, observed polyamine level, and exposure time are listed in columns 1, 2, 3, and 4 respectively. Polyamine levels are reported as increased (inc), decrease (dec), or no change (N/C). In some case the specific levels of putrescine, spermidine, and/or spermine are listed.

H82 cells = assay: Polyamine levels in H82 cells following treatment; conditions: 24 hr
Protocol: as §1

[3] = Homo sapiens, NCI-H157, 96 hr exposure
[4] = 10 uM, 24 hr, inc = increased, dec = decrease, N/C = no change

Row | pIC50 [1, 3] | Compound | further results
1 | 4.30 to 5.00 | N=C(NCCCNCCCCNCCCNC(=N)NC(=N)NCC(c1ccccc1)c1ccccc1)NC(=N)NCC(c1ccccc1)c1ccccc1 [XBI-54-14B] | 
2 | < 5.00 | NCCCCCNCCCNCCCNCCCCN [YZ33035] | 
3 |  | CCCCNCCCNCCCNCCCN [ZQW-16c] | Polyamine Level [2, 4]: slowly inc; Polyamine Level (H82 cells; 0-10 uM): slight inc; Polyamine Level (H82 cells; 10 uM): dec ~50%
4 | 4.30 to 5.00 | CC(CCNCCCCCCCNCCC(C)NCC(F)(F)F)NCC(F)(F)F (centres unmarked) [51-DHEJ-18] | 
5 | 4.30 to 5.00 | CCNCCCNCCCCCNCCCNCC(C)CC (centres unmarked) [51-DHEJ-A] | 
6 | 4.30 to 5.00 | N=C(NCCCNCCCNCCCNC(=N)NC(=N)NCCC(c1ccccc1)c1ccccc1)NC(=N)NCCC(c1ccccc1)c1ccccc1 [XBI-54-12D] | 
7 |  | CCCCNCCCNCCCNCCCNCCCC [ZQW-14c] | Polyamine Level [2, 4]: slowly dec; Polyamine Level (H82 cells; 10 uM): slowly dec
8 | < 4.30 | COc1cc(C(C)(C)C)c(C(C)(C)C)cc1CNC(C)CCNCCCNCCC(C)NCc1cc(C(C)(C)C)c(C(C)(C)C)cc1OC (centres unmarked) [51-DHEJ-8] | 
9 | 6.00 to 6.30 | CCNCCCNCCCNCCCNC(C)CC (centres unmarked) [DG-52-27C] | 
10 | < 4.30 | CCCCNC(C)CCNCCCCCCCNCCC(C)NCC (centres unmarked) [51-DHEJ-49C] | 
11 |  | CCNCCCN(CCCN)CCCCCCCNCCCNCC1CCCCCC1 [ZQW-27-11C] | Polyamine Level ([2]; 10 uM, 96 hr): N/C; Polyamine Level (H82 cells; 10 uM): dec ~50%
12 |  | C#CC(=O)NCCCNCCCNCCCNC(=O)C#C [44-DHEJ-41] | pIC50 ([1]; 96 hr exposure): 4.45 to 5.15
13 | < 4.54 | Fc1cc(F)c(CNCCCNCCCNCCCNCc2cc(F)c(F)cc2F)cc1F [44-DHEJ-10C] | 
14 | ~6.00 | CCNCCCCNCCCNCCCNCC [YZ33050c] | 
15 | 4.30 to 5.00 | CNC(=N)NCCCNCCCNCCCNC(=N)NC [B179-1] | 
16 | < 4.30 | CCNCCCCCNCCCNCCCNCC [51-DHEJ-B] | 
17 | 5.30 to 6.00 | CCNCCCNCCCCCNCCCN [44-DHEJ-49] | 
18 | ~6.00 | CCNCCCNCCCNCCCCNCC1CC1 [YZ33049] | 
19 | 4.30 to 5.00 | N=C(NCCCNCCCNCCCNC(=N)NC(=N)NCC(c1ccccc1)c1ccccc1)NC(=N)NCC(c1ccccc1)c1ccccc1 [XBI-54-12C] | 

Row | pIC50 [1, 3] | Compound | further results
20 |  | C1CCC(CNCCCNCC2CCCC(CNCCCNCC3CCCCC3)C2)CC1 (centres unmarked) [UNS-31-7A] | Polyamine Level [2, 4]: slight dec; Polyamine Level (H82 cells; 10 uM): slight dec
21 | < 4.30 | N=C(NCCCNCCCCNCCCNC(=N)NCCC(c1ccccc1)c1ccccc1)NCCC(c1ccccc1)c1ccccc1 [XBI-54-8B] | 
22 | < 4.30 | CC(C)CNCCCNCCCNCCCNCC(C)C [DG-52-29C] | 
23 | < 4.30 | N=C(NCCCNCCCCNCCCNC(=N)NCC(c1ccccc1)c1ccccc1)NCC(c1ccccc1)c1ccccc1 [XBI-54-9B] | 
24 | 4.30 to 5.00 | N=C(NCCCNCCCCCCCNCCCNC(=N)NC(=N)NCCC(c1ccccc1)c1ccccc1)NC(=N)NCCC(c1ccccc1)c1ccccc1 [XBI-54-13B] | 
25 | 5.00 to 5.30 | CNC(=N)NCCCNCCCCCCCNCCCNC(=N)NC [B181] | 
26 | < 4.51 | CC(CCNCCCNCCC(C)NCc1cc(F)c(F)cc1F)NCc1cc(F)c(F)cc1F (centres unmarked) [44-DHEJ-5C] | 
27 |  | C1CCCC(CNCCCNCCCNCCCNCC2CC2)CC1 [CPCHENSpm] | Polyamine Level [2, 4]: slight dec; Polyamine Level, Spm ([2]; 10 uM, 24 hr): inc; Polyamine Level (H82 cells; 10 uM): slight inc, and N/C
28 |  | CCNCCCN(CCCN)CCCCCCCNCCCN [ZQW-27-9] | Polyamine Level [2, 4]: N/C; Polyamine Level (H82 cells; 10 uM): dec
29 | < 4.30 | CCNCCCNCCCNCCCCCN [51-DHEJ-C] | 
30 |  | CCCCNCCCNCCCNCCCNCC [ZQW-19] | Polyamine Level ([2]; 1 uM, 24 hr): N/C; Polyamine Level [2, 4]: dec ~50%; Polyamine Level (H82 cells; 0-10 uM): slow dec; Polyamine Level (H82 cells; 10 uM): dec ~50%
31 | 6.00 | CCNCCCNCCCNCCCNC(C)C [DG-52-28] | 
32 | 5.00 to 5.30 | CCNCCCNCCCCNCCC(c1ccccc1)c1ccccc1 [42-TDW-40c] | 
33 | < 4.30 | CCNCCCNCCCCCNCCCNCC [44-DHEJ-48C] | 
34 | 4.30 to 5.00 | N=C(NCCCNCCCCNCCCNC(=N)NC(=N)NCCC(c1ccccc1)c1ccccc1)NC(=N)NCCC(c1ccccc1)c1ccccc1 [XBI-54-13D] | 
35 | < 4.30 | CCNCCCNCCCNCCC(C)N (centres unmarked) [55-DHEJ-7C] | 
36 | < 4.58 | O=C(NCCCNCCCNCCCNC(=O)c1nc2ccccc2[nH]1)c1nc2ccccc2[nH]1 [44-DHEJ-40C] | 
37 | < 4.30 | CCNCCCNCCCNCCC(C)NCC1CC1 (centres unmarked) [55-DHEJ-37C] | 
38 | 4.30 | N=C(NCCCNCCCCCCCNCCCNC(=N)Nc1ccccc1)Nc1ccccc1 [B205′-1] | 

Row | pIC50 [1, 3] | Compound | further results
39 | 4.66 | O=C(CCc1nc2ccccc2[nH]1)NCCCNCCCNCCCNC(=O)CCc1nc2ccccc2[nH]1 [44-DHEJ-38] | 
40 | < 4.30 | CCNCCCN(CCCNCC)CCCNCC [55-DHEJ-31C] | 
41 | < 5.00 | NCCCCCNCCCNCCCNCCCCCN [YZ33041] | 
42 | 5.00 to 5.30 | C/N=C(\NC)NCCCNCCCNCCCN/C(=N/C)NC [B182] | 
43 | < 4.30 | CCNCCCNCCCCC(C)NCCCNCC (centres unmarked) [55-DHEJ-24C] | 
44 | < 4.30 | CC(N)CCNCCCNCc1ccc(-c2ccccc2)cc1 (centres unmarked) [55-DHEJ-26] | 
45 |  | CCC(CC)CNCCCNCCCNCCCNCC(CC)CC [40-TDW-28] | pIC50 ([1]; 96 hr exposure): 4.30 to 5.00
46 | 5.00 to 6.00 | CCCCNCCCCNCCCCNCCCNCC [YZ33049c] | 
47 |  | CC(C)=CCNCCCNCCCNCCCNCC=C(C)C [SV-53-18C2] | pIC50 ([1]; 96 hr exposure): 4.30 to 5.00
48 |  | NC1CCC(NCCCNCC2CC2)C1 (centres unmarked) [UNS-31-21c] | Polyamine Level [2, 4]: dec; Polyamine Level, Spm ([2]; 10 uM, 24 hr): same; Polyamine Level (H82 cells; 10 uM): slight inc
49 | < 4.30 | NCCCCCCNCCCCCCNCCCc1nc2ccccc2[nH]1 [50-DHEJ-3C] | 
50 |  | Cc1c(CNCCCNCCCNCCCNCc2cccc(-c3ccccc3)c2C)cccc1-c1ccccc1 [40-TDW-48] | pIC50 ([1]; 96 hr exposure): 5.30 to 6.00
51 |  | c1ccc(-c2ccccc2CNCCCCNCCCNCc2ccccc2-c2ccccc2)cc1 [42-TDW-35c] | pIC50 ([1]; 96 hr exposure): 5.30 to 6.00
52 | 4.30 to 5.00 | N=C(NCCCNCCCCCCCNCCCNC(=N)NC(=N)NCC(c1ccccc1)c1ccccc1)NC(=N)NCC(c1ccccc1)c1ccccc1 [XBI-54-11C] | 
53 | < 5.00 | CCNCCCNCCCNCCCCN [YZ33046] | 
54 | 4.30 to 5.00 | CC(CCNCCCNCCC(C)NCC1CC1)NCC1CC1 (centres unmarked) [55-DHEJ-35C] | 
55 | < 4.30 | CCC(CC)CNCCCCNCCCNCC(CC)CC [46-TDW-12] | 
56 |  | CCNCCCNCCCNCCCNCC [BENSpm, reference compound] | Polyamine Level [2, 4]: N/C
57 | 5.00 to 5.30 | N=C(NCCCNCCCNCCCNC(=N)Nc1ccccc1)Nc1ccccc1 [B188-2] | 

Row | Compound | pIC50 [1, 3] | further results
58 | c1cc2ccc3cccc4c(CCCCNCCCNCCCNCCCNCCCCc5cc6cccc7ccc8cccc5c8c76)cc(c1)c2c34 [40-TDW-26c] | 4.30 to 5.00 | 
